Laboratory results as given in ChEMBL document CHEMBL1201862, “PubChem BioAssay data set” (2004).
The source made the active and inactive calls. No cut-off for these calls is given here.

Molecular target: T1, Cysteine protease ATG4B (Homo sapiens, UniProt Q9Y4P1)
T1 sequence (Q9Y4P1 whole entry): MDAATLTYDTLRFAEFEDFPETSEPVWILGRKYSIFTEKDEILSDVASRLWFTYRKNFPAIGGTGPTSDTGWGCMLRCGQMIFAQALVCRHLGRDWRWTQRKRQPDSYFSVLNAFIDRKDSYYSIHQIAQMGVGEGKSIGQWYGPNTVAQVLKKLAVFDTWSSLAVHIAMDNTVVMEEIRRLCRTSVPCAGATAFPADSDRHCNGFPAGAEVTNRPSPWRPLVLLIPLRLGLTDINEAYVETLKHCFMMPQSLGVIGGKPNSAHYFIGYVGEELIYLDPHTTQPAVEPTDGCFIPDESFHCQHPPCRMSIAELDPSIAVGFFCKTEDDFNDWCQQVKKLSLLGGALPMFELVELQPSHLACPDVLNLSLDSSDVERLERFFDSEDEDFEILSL
Test: autophagin-1 cysteine protease inhibition – biochemical, fluorescence, set 2, dose response (AID 588584)
Type: functional

## Oc1ccc2ccccc2c1/C=N/Nc1nnc(-c2ncc[nH]2)c2ccccc12
  IC50: 5.4 µM (active)
